Tests used:
[1] = target: recombinant RORγ Ligand Binding Domain (LBD) protein (Homo sapiens (Human), UniProt P51449); test: Radio-Ligand RORγ Binding Assay (Assay 1); details: radio-ligand 25-hydroxy [26,27-3H]-cholesterol competition
Outline: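 Cell-free competition with 25-hydroxy[26,27-³H]-cholesterol for the ligand site of 6×His-GST-tagged RORγ LBD; SPA read-out with poly-Lys YSi beads after shaking and incubation at rt. IC50 taken as the inflection point of a four-parameter fit of percent inhibition vs concentration.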

[2] = target: full-length RORγt in Jurkat cells (Homo sapiens (Human), UniProt P51449); test: RORγt 5×RORE Assay in Jurkat Cells (Assay 2); assay type: cell-based; details: RORγt 5×RORE Nanoluc reporter
Sequence of full-length RORγt in Jurkat cells (P51449 other isoform, or with tags, fused parts or gaps): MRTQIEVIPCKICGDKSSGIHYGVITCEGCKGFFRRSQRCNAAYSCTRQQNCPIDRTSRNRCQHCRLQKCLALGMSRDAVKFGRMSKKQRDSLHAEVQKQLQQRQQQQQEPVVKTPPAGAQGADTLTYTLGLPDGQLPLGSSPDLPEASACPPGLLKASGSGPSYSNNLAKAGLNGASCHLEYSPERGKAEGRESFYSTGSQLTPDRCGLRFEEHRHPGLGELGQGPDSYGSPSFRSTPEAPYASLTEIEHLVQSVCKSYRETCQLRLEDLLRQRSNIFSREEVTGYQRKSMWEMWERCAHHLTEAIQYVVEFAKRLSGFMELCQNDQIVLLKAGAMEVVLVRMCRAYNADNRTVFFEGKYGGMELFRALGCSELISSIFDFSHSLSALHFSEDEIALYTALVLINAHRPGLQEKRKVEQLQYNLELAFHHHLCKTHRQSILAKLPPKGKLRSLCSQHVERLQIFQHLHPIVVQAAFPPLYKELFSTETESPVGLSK

Sequence of recombinant RORγ Ligand Binding Domain (LBD) protein (P51449 269-508): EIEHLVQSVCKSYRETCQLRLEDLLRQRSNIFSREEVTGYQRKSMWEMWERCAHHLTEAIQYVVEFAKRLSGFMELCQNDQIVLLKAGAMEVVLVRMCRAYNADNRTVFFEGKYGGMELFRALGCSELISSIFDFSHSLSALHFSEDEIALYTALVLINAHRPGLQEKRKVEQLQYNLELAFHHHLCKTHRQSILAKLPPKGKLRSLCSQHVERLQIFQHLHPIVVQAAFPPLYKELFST

Row | Compound | Ki [1] [nM] | IC50 [2] [nM]
1 | CCn1c(Cc2ccc3c(c2)OC(F)(F)O3)cc2cc(C(=O)N[C@@H](CO)c3ccc(S(=O)(=O)CC)cn3)ccc21 [IN-5, (R)-2-((2,2-difluorobenzo[d][1,3]dioxol-5-yl)methyl)-1-ethyl-N-(1-(5-(ethylsulfonyl)pyridin-2-yl)-2-hydroxyethyl)-1H-indole-5-carboxamide] | < 100 | < 100
2 | CCn1c(Cc2ccc(Cl)cc2)cc2cc(C(=O)N[C@@H](CO)c3ccc(S(=O)(=O)CC)cn3)ccc21 [IN-8, (R)-2-(4-chlorobenzyl)-1-ethyl-N-(1-(5-(ethylsulfonyl)pyridin-2-yl)-2-hydroxyethyl)-1H-indole-5-carboxamide] | < 100 | 100 to 1000
3 | CCn1c(Cc2ccc(C(F)(F)F)cn2)cc2cc(C(=O)N[C@@H](CO)c3ccc(S(=O)(=O)CC)cc3)ccc21 [IN-9, (R)-1-ethyl-N-(1-(4-(ethylsulfonyl)phenyl)-2-hydroxyethyl)-2-((5-(trifluoromethyl)pyridin-2-yl)methyl)-1H-indole-5-carboxamide] | < 100 | < 100
4 | CCn1c(CN2CCC(C(F)(F)F)CC2)cc2cc(C(=O)N[C@@H](CO)c3ccc(S(=O)(=O)CC)cc3)ccc21 [IN-10, (R)-1-ethyl-N-(1-(4-(ethylsulfonyl)phenyl)-2-hydroxyethyl)-2-((4-(trifluoromethyl)piperidin-1-yl)methyl)-1H-indole-5-carboxamide] | < 100 | < 100
5 | CCn1c(CN2CCC(C(F)(F)F)CC2)cc2cc(C(=O)N[C@@H](CO)c3ccc(S(=O)(=O)CC)cn3)ccc21 [IN-11, (R)-1-ethyl-N-(1-(5-(ethylsulfonyl)pyridin-2-yl)-2-hydroxyethyl)-2-((4-(trifluoromethyl)piperidin-1-yl)methyl)-1H-indole-5-carboxamide] | < 100 | < 100
6 | CCS(=O)(=O)c1ccc(CNC(=O)c2ccc3c(c2)cc(CN2CCC(C(F)(F)F)CC2)n3C2CC2)cc1 [IN-12, 1-cyclopropyl-N-(4-(ethylsulfonyl)benzyl)-2-((4-(trifluoromethyl)piperidin-1-yl)methyl)-1H-indole-5-carboxamide] | < 100 | < 100
7 | CCS(=O)(=O)c1ccc([C@H](CO)NC(=O)c2ccc3c(c2)cc(CN2CCC(C(F)(F)F)CC2)n3C2CC2)cc1 [IN-13, (R)-1-cyclopropyl-N-(1-(4-(ethylsulfonyl)phenyl)-2-hydroxyethyl)-2-((4-(trifluoromethyl)piperidin-1-yl)methyl)-1H-indole-5-carboxamide] | < 100 | < 100
8 | CCn1c(C[C@H]2CC[C@H](C(F)(F)F)CC2)cc2cc(C(=O)NCc3ccc(S(=O)(=O)CC)cn3)ccc21 [IN-15.1, 1-ethyl-N-((5-(ethylsulfonyl)pyridin-2-yl)methyl)-2-(((1r,4r)-4-(trifluoromethyl)cyclohexyl)methyl)-1H-indole-5-carboxamide] | < 100 | < 100
9 | CCn1c(C[C@H]2CC[C@H](C(F)(F)F)CC2)cc2cc(C(=O)N[C@@H](CO)c3ccc(S(=O)(=O)CC)cc3)ccc21 [IN-16.1, 1-ethyl-N-((R)-1-(4-(ethylsulfonyl)phenyl)-2-hydroxyethyl)-2-(((1r,4R)-4-(trifluoromethyl)cyclohexyl)methyl)-1H-indole-5-carboxamide] | < 100 | < 100
10 | CCn1c(C[C@H]2CC[C@H](C(F)(F)F)CC2)cc2cc(C(=O)NCc3ccc(S(=O)(=O)CC)cc3)ccc21 [IN-17.1, 1-ethyl-N-(4-(ethylsulfonyl)benzyl)-2-(((1r,4r)-4-(trifluoromethyl)cyclohexyl)methyl)-1H-indole-5-carboxamide] | < 100 | < 100
11 | CCS(=O)(=O)c1ccc(CNC(=O)c2ccc3c(c2)cc(Cc2ccc(C(F)(F)F)cc2)n3C2CC2)cc1 [IN-18, 1-cyclopropyl-N-(4-(ethylsulfonyl)benzyl)-2-(4-(trifluoromethyl)benzyl)-1H-indole-5-carboxamide] | < 100 | < 100
12 | CCS(=O)(=O)c1ccc([C@H](CO)NC(=O)c2ccc3c(c2)cc(Cc2ccc(C(F)(F)F)cc2)n3C2CC2)nc1 [IN-19, (R)-1-cyclopropyl-N-(1-(5-(ethylsulfonyl)pyridin-2-yl)-2-hydroxyethyl)-2-(4-(trifluoromethyl)benzyl)-1H-indole-5-carboxamide] | < 100 | < 100
13 | CCn1c(Cc2ccc(C#N)cc2)cc2cc(C(=O)N[C@@H](CO)c3ccc(S(=O)(=O)CC)cn3)ccc21 [IN-21, (R)-2-(4-cyanobenzyl)-1-ethyl-N-(1-(5-(ethylsulfonyl)pyridin-2-yl)-2-hydroxyethyl)-1H-indole-5-carboxamide] | < 100 | 100 to 1000
14 | CCn1c(C(=O)c2ccc(C(F)(F)F)cn2)cc2cc(C(=O)N[C@@H](CO)c3ccc(S(=O)(=O)CC)cc3)ccc21 [IN-22, (R)-1-ethyl-N-(1-(4-(ethylsulfonyl)phenyl)-2-hydroxyethyl)-2-(5-(trifluoromethyl)picolinoyl)-1H-indole-5-carboxamide] | < 100 | < 100

From patent publication US10301261B2, “Substituted indoles as modulators of ROR-gamma” (Vitae Pharmaceuticals, LLC, priority 2015, dated 2019)
